# Results as given in patent US5972980A, “Method for treating and preventing inflammation and atherosclerosis” (Warner-Lambert Company, priority 1999, dated 1999).
# Where two headings read alike, the source gives them in different places.
# What was measured:
# [1] = biological target: T1, 5-LO enzyme (Homo sapiens, UniProt P09917); assay: 5-LO enzyme inhibition; assay type: biochemical
# T1 sequence (P09917 1-674): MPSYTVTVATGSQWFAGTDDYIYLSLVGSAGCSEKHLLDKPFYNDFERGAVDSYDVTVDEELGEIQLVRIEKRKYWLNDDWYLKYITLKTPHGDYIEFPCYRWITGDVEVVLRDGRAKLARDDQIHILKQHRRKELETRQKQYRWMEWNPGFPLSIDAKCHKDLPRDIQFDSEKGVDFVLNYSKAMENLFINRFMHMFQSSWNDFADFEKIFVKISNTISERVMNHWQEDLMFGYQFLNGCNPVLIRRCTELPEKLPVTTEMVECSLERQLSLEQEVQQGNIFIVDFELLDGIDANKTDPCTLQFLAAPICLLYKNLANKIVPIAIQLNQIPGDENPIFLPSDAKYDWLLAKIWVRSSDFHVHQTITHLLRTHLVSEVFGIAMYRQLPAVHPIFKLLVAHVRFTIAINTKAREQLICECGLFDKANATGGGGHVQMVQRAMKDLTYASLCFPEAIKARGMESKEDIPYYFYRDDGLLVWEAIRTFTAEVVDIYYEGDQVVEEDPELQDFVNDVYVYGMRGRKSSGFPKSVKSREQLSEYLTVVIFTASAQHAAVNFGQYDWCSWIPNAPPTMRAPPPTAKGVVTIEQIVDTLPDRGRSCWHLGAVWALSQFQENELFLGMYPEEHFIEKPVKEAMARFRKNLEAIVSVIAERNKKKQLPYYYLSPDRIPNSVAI
# [2] = biological target: T2, rabbit reticulocyte 15-LO (Oryctolagus cuniculus, UniProt P12530); assay: 15-LO inhibition, rabbit reticulocyte 15-LO with linoleic acid substrate, HPLC method of Auerbach et al.; assay type: biochemical
# T2 construct: rabbit reticulocyte 15-LO; from tissue; host or cells: rabbit reticulocytes
# T2 sequence (P12530 1-663): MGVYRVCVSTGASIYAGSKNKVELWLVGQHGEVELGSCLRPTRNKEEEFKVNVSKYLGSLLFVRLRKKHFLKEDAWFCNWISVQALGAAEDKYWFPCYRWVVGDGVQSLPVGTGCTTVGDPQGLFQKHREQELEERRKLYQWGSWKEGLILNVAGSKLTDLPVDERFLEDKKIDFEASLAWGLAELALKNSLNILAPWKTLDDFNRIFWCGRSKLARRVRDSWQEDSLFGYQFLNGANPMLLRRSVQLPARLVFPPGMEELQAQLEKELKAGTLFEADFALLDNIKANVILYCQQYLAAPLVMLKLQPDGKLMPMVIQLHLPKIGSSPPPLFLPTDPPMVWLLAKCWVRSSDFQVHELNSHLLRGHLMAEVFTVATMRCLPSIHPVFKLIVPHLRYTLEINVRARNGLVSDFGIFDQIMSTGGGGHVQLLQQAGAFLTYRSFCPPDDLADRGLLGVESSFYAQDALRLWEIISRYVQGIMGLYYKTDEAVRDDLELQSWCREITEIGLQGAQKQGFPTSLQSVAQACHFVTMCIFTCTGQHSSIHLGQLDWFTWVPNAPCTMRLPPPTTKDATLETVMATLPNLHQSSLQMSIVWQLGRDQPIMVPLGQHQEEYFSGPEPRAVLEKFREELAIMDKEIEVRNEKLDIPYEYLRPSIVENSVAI
# Protocol: Two in vitro assays were utilized, both utilizing rabbit reticulocyte 15-LO, and linoleic acid as substrate, to enzymatically produce a peroxide oxidation product known as 13(S)-HPODE. N-Benzoyl leucomethylene blue was utilized as a calorimetric reagent for detection and quantification of the peroxide formation. Also, HPLC was utilized to quantify the oxidation following incubation at 4° C. for 10 minutes.
# [3] = test system: atherosclerotic lesions in cholesterol-fed New Zealand White rabbits; assay: Atherosclerosis in cholesterol-fed rabbits, 12-week study (aortic lesion coverage, aortic cholesterol content); assay type: in vivo, rabbit; settings: 350 mg/kg/day in food, 12 weeks
# Excerpt: As further evidence of 15-LO inhibitors being effective to prevent and treat inflammation and atherosclerosis in animals, one representative compound has been extensively evaluated in cholesterol-fed rabbits over a 12-week period.
# Specific pathogen-free New Zealand White rabbits (≈2.5 kg) were obtained from Myrtle's Rabbitry (Thompson Station, Tenn.). The animals were fed a standard laboratory diet (Ralston Purina, St. Louis, Mo.) and were allowed to become acclimatized for 7 days before initiation of the study, at which time two groups of rabbits (n=10 each) were begun on a diet enriched with cholesterol (0.25% wt/wt), peanut oil (3% wt/wt), and coconut oil (3% wt/wt), with a small amount of applesauce mixed into the food to enhance palatability. This diet was designed to produce a modest hypercholesterolemic response. The control group received no additional treatment. […] Rabbits were permitted access to 40 g of food at ≈12 hour intervals via automated feeders, and diet intake was monitored every day such that the animals received 175 mg/kg/bid. Water was available ad libitum. Body weights were measured at regular intervals throughout the 12-week study. Blood samples were obtained at the indicated intervals for determination of hematocrit and plasma lipid concentrations.
# Rabbits were euthanized by an overdose of sodium pentobarbital (150 mg/kg^-1) and exsanguinated via the abdominal aorta. Aortas were removed from the valve to the ileal bifurcation, opened to expose the intima, and photographed with a Polaroid camera. By use of these photographs, the areas of grossly discernible atherosclerosis were manually integrated on a digitizing pad and calculated with SigmaScan (Jandel Scientific). Aortas were visually subdivided into three areas: arch (aortic valve to first intercostal), thoracic aorta (first intercostal to diaphragm area), and abdominal aorta (diaphragm to ileal bifurcation). In addition to extracting aortas, body tissues were surveyed for indications of adverse reactions.
# Weighed segments of each aortic region (arch, thoracic, and abdominal) were extracted. Esterified and unesterified cholesterol content of aortic tissue were determined by gas chromatography using 5-α-cholestane as an internal standard.
# [4] = Table 1, read-out: 5-LO (concentration to inhibit 50% of 5-LO activity)
# [5] = Table 1, HPLC method, read-out: 15-LO IC50
# [6] = Table 2, benzimidazoles, read-out: 5-LO IC50
# [7] = Table 2, benzimidazoles, read-out: 15-LO IC50
# [8] = read-out: 5-LO inhibitory activity IC50
# [9] = Table 4, indoles, read-out: 5-LO IC50
# [10] = Table 4, indoles, read-out: 15-LO IC50
smiles,measurement,setting,value
COc1ccc2[nH]c3c4ccccc4[s+]cc3c2c1,IC50,[1]; [4],> 9.6 µM
same,IC50,[2]; [5],700 nM
CCCCCC#CCC#CCC#CCC#CCCCC(=O)O [CH3 (CH2)3 (CH2 --C≡C--)4 (CH2)3 --COOH],IC50,"[1]; Table 5, read-out: 5-LO IC50",> 10 µM
same,IC50,"[2]; Table 5, read-out: 15-LO IC50",750 nM
Clc1ccc2c(c1)Nc1c(ccc3ccccc13)S2,IC50,"[1]; Table 5, read-out: 5-LO IC50",> 30 µM
same,IC50,"[2]; Table 5, read-out: 15-LO IC50",2000 nM
"c1ccc2c(c1)c[s+]c1c3ccccc3[nH]c21 [drawing 20 (R2=H, R3=H, R4=H, R5=H, R8=H)]",IC50,[1]; [4],22 µM
same,IC50,[2]; [5],3800 nM
COc1ccc2[nH]c3c4ccccc4ncc3c2c1,IC50,[2]; [5],> 25000 nM
"Cc1ccc2[s+]cc3c4ccccc4[nH]c3c2c1 [drawing 19 (R2=H, R3=H, R4=CH3, R5=H, R8=H)]",IC50,[2]; [5],1900 nM
c1ccc2c(c1)ccc1c3ccccc3[nH]c21,IC50,"[1]; Table 5, read-out: 5-LO IC50",> 10 µM
same,IC50,[2],1500 nM
"Clc1ccc2[s+]cc3c4ccccc4[nH]c3c2c1 [drawing 19 (R2=H, R3=H, R4=Cl, R5=H, R8=H)]",IC50,[2]; [5],12000 nM
COc1ccc2c(c1)[nH]c1c3ccccc3[s+]cc21,IC50,[2]; [5],26000 nM
"c1csc(-c2csc(-c3nc4ccccc4[nH]3)n2)c1 [drawing 26 (R2=H, R3=H, R10=H, R11=drawing 27)]",IC50,[1]; [6],> 10 µM
same,IC50,[2]; [7],1500 nM
"Cc1[s+]c2ccccc2c2[nH]c3ccccc3c12 [drawing 19 (R2=H, R3=H, R4=H, R5=H, R8=CH3)]",IC50,[2]; [5],> 25000 nM
"c1ccc2c(c1)[nH]c1c3ccccc3[s+]cc21 [drawing 19 (R2=H, R3=H, R4=H, R5=H, R8=H)]",IC50,[2]; [5],1000 to 4000 nM
Clc1ccc2[nH]c(-c3ccccc3)nc2c1,IC50,[1]; [6],> 10 µM
same,IC50,[2]; [7],700 nM
COc1ccc2[nH]c3c(c2c1)CSc1ccccc1-3,IC50,[1]; [4],> 10 µM
same,IC50,[2]; [5],600 nM
Clc1ccc(-c2nc3ccc(Cl)cc3[nH]2)cc1 [2-(4-chlorophenyl)-5-chlorobenzimidazole],IC50,[1]; [6],> 10 µM
same,IC50,[1]; [8],> 10 µM
same,15-LO to 5-LO ratio of activities,[2]; 15-LO versus 5-LO,greater than 10
same,IC50,[2]; [7],650 nM
O=C(Cc1c[nH]c2ccccc12)Nc1ccccc1,IC50,[1]; [9],> 10 µM
same,IC50,[2]; [10],1500 nM
"O=[N+]([O-])c1ccc2[s+]cc3c4ccccc4[nH]c3c2c1 [drawing 19 (R2=H, R3=H, R4=NO2, R5=H, R8=H)]",IC50,[1]; [4],> 10 µM
same,IC50,[2]; [5],480 nM
"COc1ccc(/C=C/C(=O)c2cccs2)cc1 [drawing 31 (R2=H, R3=4-OCH3, Het=drawing 32)]",IC50,"[1]; Table 3, styrenes, read-out: 5-LO IC50",> 10 µM
same,IC50,"[2]; Table 3, styrenes, read-out: 15-LO IC50",1600 nM
COc1ccc2[nH]c3c(c2c1)COc1ccccc1-3,IC50,[1]; [4],> 50 µM
same,IC50,[2]; [5],4000 nM
"c1ccc2c(c1)SCc1c-2[nH]c2ccccc12 [Compound A, 6,11-dihydro[1]benzothiopyrano[4,3-b]-indole]",IC50,[1]; [4],> 100 µM
same,IC50,[1]; [8],> 100 µM
same,"cholesterol esters, abdominal region",[3]; abdominal (control about 0.6),no detectable cholesterol esters
same,"lesion coverage, abdominal region",[3]; abdominal aorta (control 5%),about 1%
same,"unesterified cholesterol, thoracic and abdominal regions",[3]; about the same as control,0.7-0.8 mg/g tissue wet weight
same,"lesion coverage of intima, arch area",[3]; aortic arch (control about 15%),no lesion coverage
same,"unesterified cholesterol, arch region",[3]; arch (control about 1.4),about 0.8 mg/g
same,"cholesterol esters, arch region",[3]; arch (control about 2),no detectable cholesterol esters
same,"cholesterol esters, thoracic region",[3]; thoracic (control none),no detectable cholesterol esters
same,"lesions, thoracic region",[3]; thoracic aorta,No detectable lesions
c1ccc2c(c1)[nH]c1c3cc4c(cc3[s+]cc21)CCCC4,IC50,[1]; [4],> 32 µM
same,IC50,[2]; [5],500 to 2000 nM
COc1ccc2c3c([nH]c2c1)-c1ccccc1SC3,IC50,[1]; [4],> 50 µM
same,IC50,[2]; [5],4500 nM
"Cc1ccc2c(c1)[s+]cc1c3ccccc3[nH]c21 [drawing 19 (R2=H, R3=H, R4=H, R5=CH3, R8=H)]",IC50,[2]; [5],1000 to 4000 nM
COc1ccc2[nH]c3c(c2c1)CCc1ccccc1-3,IC50,[2]; [5],> 25000 nM
O=C(Nc1cccc(Cl)c1)Sc1c[nH]c2ccccc12,IC50,[1]; [9],> 10 µM
same,IC50,[2]; [10],4000 nM
